Source: patent publication US9161924B2, “Factor IXa inhibitors” (Merck Sharp & Dohme Corp., priority 2011, dated 2015)
pIC50: −log10 of the molar value. Counter-ions that a name gives are not always drawn.

Target: human factor IXa (Homo sapiens (Human), UniProt P00740)
Assay: Factor IXa enzyme assay (inhibitory activity against factor IXa)
Assay type: biochemical
Conditions: substrate SPECTROFLUOR FIXa 100 μM, factor IXa 2.0 μg/ml, 60 minutes at room temperature, fluorescence
Protocol: Determination of Inhibitory Activity Against Factor IXa
Inhibitory activity against factor IXa was tested using the substrate SPECTROFLUOR FIXa (American Diagnostica Inc.; 500 West Avenue, Stamford, Conn. 06902 USA; Pr. No. 299F) and human factor IXa (American Diagnostica Inc.; Pr. No. 449b). Test substances dissolved in buffer A (50 mM α,α,α-tris (hydroxymethyl)methylamine (Tris), 100 mM NaCl, 5 mM CaCl2, 15% (v/v) ethylene glycol, pH 8.0) were mixed with factor IXa (2.0 μg/ml final concentration). The enzyme reaction was started by addition of SPECTROFLUOR FIXa (100 μM final concentration). After incubation for 60 minutes at room temperature, the reaction was stopped by the addition of 20% (v/v) acetic acid solution, and then fluorescence value measured (Excitation Wavelength:355 nm, Emission Wavelength; 460 nm) in a microtiter plate reader (ARVO 1420 Multilabel Counter; PerkinElmer).
IC50 was calculated from a dilution series of the test substance with the aid of the software, Symix Assay Explorer (Symyx Technologies, Inc.).

Chain of human factor IXa (P00740 227-461): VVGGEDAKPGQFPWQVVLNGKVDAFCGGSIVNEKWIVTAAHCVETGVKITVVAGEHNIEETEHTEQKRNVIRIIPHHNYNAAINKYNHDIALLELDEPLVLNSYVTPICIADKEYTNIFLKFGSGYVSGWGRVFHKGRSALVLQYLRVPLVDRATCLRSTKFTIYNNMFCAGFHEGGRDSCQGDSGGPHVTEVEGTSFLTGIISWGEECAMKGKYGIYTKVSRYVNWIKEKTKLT
Chain of human factor IXa (P00740 47-191 partner): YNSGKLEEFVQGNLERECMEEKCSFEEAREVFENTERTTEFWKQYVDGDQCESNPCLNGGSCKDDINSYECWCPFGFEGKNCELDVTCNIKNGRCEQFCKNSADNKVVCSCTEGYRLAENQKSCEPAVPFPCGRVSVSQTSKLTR

Row | Compound | pIC50
1 | N=C(N)c1ccc(NC(=O)C(O)c2cccc(-c3ccc(OC(F)(F)F)cc3)c2)cc1 (stereo not drawn) [Compound 13, N-(4-carbamimidoylphenyl)-2-hydroxy-2-(4′-(trifluoromethoxy)biphenyl-3-yl)acetamide] | 6.35
2 | CC(C)(C)c1ccc(-c2cccc(C(O)C(=O)Nc3ccc(C(=N)N)cc3)c2)cc1 (stereo not drawn) [Compound 37, 2-(4′-tert-butylbiphenyl-3-yl)-N-(4-carbamimidoylphenyl)-2-hydroxyacetamide hydrochloride] | 6.80
3 | Nc1nccc2cc(NC(=O)C(O)c3cccc(-c4ccc(OC(F)(F)F)cc4)c3)ccc12 (stereo not drawn) [Compound 22, N-(1-aminoisoquinolin-6-yl)-2-hydroxy-2-(4′-(trifluoromethoxy)biphenyl-3-yl)acetamide] | 6.12
4 | CC(C)(C)c1ccc(-c2cccc(C(O)C(=O)Nc3ccc4c(N)nccc4c3)c2)cc1 (stereo not drawn) [Compound 42, N-(1-aminoisoquinolin-6-yl)-2-(4′-tert-butylbiphenyl-3-yl)-2-hydroxyacetamide hydrochloride] | 6.16
5 | CC(C)(C)c1ccc(-c2cccc(C(O)C(=O)Nc3ccc(CN)cc3)c2)cc1 (stereo not drawn) [Compound 52, N-(4-(aminomethyl)phenyl)-2-(4′-tert-butylbiphenyl-3-yl)-2-hydroxyacetamide hydrochloride] | 5.84
6 | N=C(N)c1ccc(NC(=O)C(O)c2cccc(-c3ccc(OC(F)(F)F)cc3)c2)cc1 (stereo not drawn) [Compound 9, N-(4-carbamimidoylphenyl)-2-hydroxy-2-(4′-(trifluoromethoxy)biphenyl-3-yl)acetamide] | 6.36
